# Data reported in the METLIN SMRT retention time set (Domingo-Almenara et al. 2019).
# Test: gradient 5% acetonitrile 3 min, to 50% in 2 min, to 85% in 15 min, held 3 min, 100 µL/min
# Conditions: column: Zorbax Extend-C18 2.1 x 50 mm; eluents: water / acetonitrile, 0.1% formic acid
# Method in brief: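 Pure standards were analyzed in mixtures of ~100 molecules using HPLC coupled to a quadrupole time-of-flight mass spectrometer, in both positive and negative ionization mode. Separation used a Zorbax Extend-C18 column (2.1 × 50 mm, 1.8 μm) at 100 μL/min, with water and acetonitrile each containing 0.1% formic acid. Dead and dwell volumes were 40 μL and 900 μL, and data were collected over 3 months. Retention time was read from computationally picked adduct peaks, each inspected manually.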
row,RP-LC retention time [s],SMILES
1,602,Cc1nn2c(NCc3ccccn3)c3c(nc2c1-c1ccccc1)CCCC3
2,564,CC(=O)c1cccc(NC(=O)c2nc(N(C)C)c3c(C)cc(C)nc3n2)c1
3,1100,Cc1ccc(-c2csc(NC(=O)c3ccc4c(c3)OCO4)n2)cc1C
4,692,COc1ccc(Nc2c(-c3nc(C)no3)cnc3nc(C)ccc23)c(OC)c1
5,804,O=C1CC(c2ccc(C(=O)O)cc2)c2scc(-c3ccccc3F)c2N1 (stereo not drawn)
6,880,Cc1ccc(NC(=O)C2CCc3nc(N4CCOCC4)ncc3C2)cc1Cl (stereo not drawn)
7,755,COc1cc(-c2nnc(-c3cccc(S(=O)(=O)N4CCC(C)CC4)c3)o2)cc(OC)c1OC
8,526,O=C(NCc1cccnc1)C1CCc2sc(C(=O)N3CCOCC3)cc2C1 (stereo not drawn)
9,984,CCCCN(C)S(=O)(=O)c1cc(-c2nnc(C(C)C)o2)co1
10,930,CCOC(=O)c1ccc(N2C=C(C#N)S(=O)(=O)c3c(F)cccc32)cc1
11,817,CCc1nnc(-c2cn(CC(=O)Nc3ccc4c(c3)OCCO4)c3ccccc23)o1
12,964,CCN1C(=O)c2cccnc2Sc2cc(NC(=O)c3ccc(F)c(Cl)c3)ccc21
13,622,Cc1ccccc1-c1noc(Cn2ccnc2C)n1
14,765,CN1C(=O)C2(CCN(C(=O)c3cccc(F)c3)C2)c2ccccc21 (stereo not drawn)
15,585,CCC(=O)Nc1cc(C(=O)NCc2ccc(N3CCOCC3)cc2)c2ccc(C)nc2c1
16,691,Fc1ccc(N2CCN(Cc3nnc(-c4ccccc4)o3)CC2)cc1
17,778,CC1Oc2ccc(S(=O)(=O)N3CCC(C(=O)Nc4ccc(Cl)cc4)CC3)cc2NC1=O (stereo not drawn)
18,775,O=C(Nc1cccc2nsnc12)C1CCN(S(=O)(=O)N2CCOCC2)CC1
19,699,c1ccc2c(c1)nnn2-c1ccncc1
20,660,CCNC(=O)Nc1ccc2c(c1)CN(S(=O)(=O)CC)CCO2
21,603,O=C(Cn1ncc2c(N3CCN(c4ccccn4)CC3)ncnc21)N1CCN(c2ccccc2)CC1
22,581,O=C(Cc1cc(-c2ccco2)on1)NCc1ccccn1

row,RP-LC retention time [s],SMILES
1,638,O=C(c1cc(S(=O)(=O)N2CCCC(C(=O)N3CCOCC3)C2)c[nH]1)N1CCCC1 (stereo not drawn)
2,1130,CCOc1ccc(Cc2nc(-c3ccc4oc(CC)nc4c3)no2)cc1
3,617,CCN1CCN(C(=O)c2ccc(S(=O)(=O)c3ccccc3)s2)CC1
4,853,Cc1noc(C)c1-c1ccc(S(=O)(=O)N2CCC3(CC2)OCCO3)cc1
5,738,Cc1ccc(NC(=O)CSc2nccc(N3CCCCCC3)n2)cc1F
6,842,CCOC(=O)C1CCN(c2cc3c(cc2NC(=O)NCc2ccc(C)cc2)n(C)c(=O)n3C)CC1
7,686,COCCNC(=O)NCCC1CCN(S(=O)(=O)c2ccc(C)cc2)CC1
8,711,C=CCNC(=O)c1cn(-c2cc(-c3nc(C)no3)ccn2)cn1
9,1120,COc1ccc(-c2cc(C(=O)N3CCC(Cc4ccccc4)CC3)no2)cc1
10,580,Cc1cc(C)c2c(N3CCSCC3)nc(C(=O)N3CCN(CC(C)C)CC3)nc2n1
11,842,COc1ccc(CN2CC3(CCN(S(=O)(=O)c4c(C)noc4C)CC3)C2=O)cc1
12,685,CN1C(=O)c2cc(C(=O)NCc3ccccc3)nn2CC1(C)C(=O)NCc1ccccc1 (stereo not drawn)
13,720,O=C(Nc1ccc2c(c1)OCCO2)c1ccc(-n2cc(CNC(=O)C3CC3)cn2)cc1
14,891,Cc1noc(-c2cccc(OC3CN(C(=O)NC4CCCCC4)C3)c2)n1
15,880,COc1ccc(OC)c(NC(=O)N2CCN(c3ccc(=O)n(-c4ccc(C)c(C)c4)n3)CC2)c1
16,767,CCN1C(=O)c2cccnc2Sc2cc(CNC(=O)Cc3ccccc3F)ccc21
17,1110,O=C(c1cnn(-c2ccccc2)n1)N1CCCC(COCc2ccccc2)C1 (stereo not drawn)
18,588,Cc1cnc(C2CN(C3CCCCCC3)C2)n1Cc1ccccc1
19,1060,CC(C)n1c(=O)oc2cc(-c3noc(-c4ccccc4)n3)ccc21
20,684,CCNc1nc(C)cc(N2CCN(C(=O)Nc3ccc(C)c(C)c3)CC2)n1
21,754,COc1ccc(NC(=O)CSc2nnc3c4sc(N5CCCC5)nc4ncn23)cc1
22,720,COc1ccc(Nc2c(-c3ccc(C)cc3)nc3ncccn23)cc1

row,RP-LC retention time [s],SMILES
1,727,Cc1noc(-c2ccc(NC(=O)C3CC(=O)N(c4ccccc4)C3)cc2)n1 (stereo not drawn)
2,1070,Cc1ccc(-c2csc(-c3cccn3CC(=O)N3CCCC3)n2)cc1
3,582,O=C(CCn1cccn1)N1CCCn2ccnc2C1C1CCCC1 (stereo not drawn)
4,678,O=C(Cn1c(=O)oc2ccccc21)NCC12CCCC=C1NC(=O)CC2 (stereo not drawn)
5,1020,COc1ccccc1C(=O)Nc1cccn2nc(C(C)C)nc12
6,1020,O=C(NCc1ccccc1)NC1CCN(c2nc3cccnc3n(Cc3ccccc3)c2=O)CC1
7,899,Cc1ccc2c(c1)cc(S(=O)(=O)c1ccccc1)c(=O)n2CC(=O)NCc1ccc2c(c1)OCO2
8,1050,Cc1nc(C(=O)N2CCC[C@H]2Cc2nnc(-c3ccccc3)o2)c(-c2ccccc2F)s1
9,843,O=C(NCc1cccs1)C1CCCN(c2nc3ccsc3c(=O)n2-c2ccc(F)cc2)C1 (stereo not drawn)
10,1060,O=C(c1ccco1)N1CCN(S(=O)(=O)c2cccc(-c3nc(-c4ccccc4)no3)c2)CC1
11,1060,CN(C)c1ccc(-c2nc(-c3cn(-c4ccc(F)cc4)nn3)no2)cc1
12,720,CCC1CCCCN1C(=O)c1cnc2nc(C)ccc2c1Nc1cccc(C)c1C (stereo not drawn)
13,696,CN1CCCn2cc(S(=O)(=O)Nc3ccc(F)cc3Cl)cc2C1=O
14,607,CC(=O)N1CCc2cc(C(=O)N3CCOCC3)ccc21
15,633,COCCCNC(=O)C1CCCN(c2nnc(C)c3c(C)n(-c4ccc(OC)cc4)nc23)C1 (stereo not drawn)
16,977,Cc1ccccc1-c1nnc(CSc2nnc(NC(=O)CCc3ccccc3)s2)o1
17,1100,CC(C)c1ccc(N2CC(c3nc(-c4ccc5c(c4)OCO5)no3)CC2=O)cc1 (stereo not drawn)
18,961,CN(C)c1ccc(C(=O)Nc2cc(-c3ccsc3)no2)cc1
19,754,CCC(C)NC(=O)c1ccc2c(c1)CCCN2S(C)(=O)=O (stereo not drawn)
20,856,O=C(Cn1ccn2nc(-c3ccccc3)c(CO)c2c1=O)Nc1ccc(Cl)cc1
21,652,Cc1[nH]cnc1CN1CCc2c(c3ccccc3n2C)C1=O
22,840,CC(=O)c1cccc(NC(=O)c2cccc(Br)c2)c1

row,RP-LC retention time [s],SMILES
1,1150,C=CCSc1nc2ccccc2c2nc(-c3ccncc3)nn12
2,824,Cc1cc2c(c(=O)n(-c3ccc(F)cc3)c(=O)n2CC(=O)Nc2cccc(C#N)c2)n1C
3,803,CC(C)n1nc2c(S(=O)(=O)N3CCCCC3)cccn2c1=O
4,813,Cc1ccc(NC(=O)C2CCN(C(=O)c3ncn4c3COC(c3ccc(F)cc3)C4)CC2)c(F)c1 (stereo not drawn)
5,789,O=C(Cc1ccc(F)cc1)NC1CCN(c2cc(-c3ccc(Cl)cc3)[nH]n2)C1 (stereo not drawn)
6,867,Cc1nn(CCC(=O)NCCC2=CCCCC2)c(=O)c2nn(-c3ccccc3)c(C)c12
7,960,CCCn1cc(S(=O)(=O)Nc2ccc(C)c(C)c2)c2cccnc21
8,764,COc1ccc(CNC(=O)Cn2c(C(F)(F)F)nc3cc4c(cc32)OCCO4)cc1OC
9,920,COc1ccc(-c2ccnc3nc(Cc4ccc(F)cc4)nn23)cc1
10,769,COC(=O)c1cccc(C(=O)N2CCc3ccccc3C2)n1
11,636,O=C(CCNNC(=O)c1ccncc1)NCc1ccccc1
12,1180,Cc1ccc(-c2csc(NC(=O)CCCc3nc(-c4ccccc4Cl)no3)n2)cc1
13,802,O=C(c1cc2n(n1)CCCN(Cc1ccc(F)cc1)C2=O)N1CCN(c2ccccn2)CC1
14,649,COc1cc(OC)c2c(C)c(CC(=O)N3CCC(C(N)=O)CC3)c(=O)oc2c1
15,762,Cc1ccc(C(=O)N2CCN(c3nnc4ccc(C(F)(F)F)cn34)CC2)s1
16,1170,CCN1C(=O)COc2ccc(-c3noc(/C=C/c4ccccc4)n3)cc21
17,1010,Cc1ccc(-c2ncc(C#N)c(=O)n2CC(=O)NCc2ccccc2Br)cc1
18,645,CCOc1ccc(-c2ccc(=O)n(CCNC(=O)c3cn(C)nc3OC)n2)cc1
19,1130,COc1ccc(NC(=O)c2cc(C(C)C)n3nccc3n2)cc1Cl
20,694,COc1cc(N2CCC(N3CCN(C)CC3)CC2)ccc1Nc1ncc(Cl)c(Nc2ccccc2S(=O)(=O)C(C)C)n1
21,831,Cc1cccc(NC(=O)Cn2c(=O)n(-c3ccccc3)c(=O)c3c2cc(C)n3C)c1

row,SMILES,RP-LC retention time [s]
1,CN(C)C(=O)c1ccc2c(c1)nc(CN1CCN(C(=O)COc3ccc(Cl)cc3)CC1)n2C,640
